Experimental data reported in the supplement of paper PMC10307832.

Experiments:
Experiment in all cases: relative viability (nuclei count vs DMSO), 5 days (fraction); higher = more cells survive
[1] = compound: CN1C=C(C2=CC=CC=C21)/C=C\3/C4=C(C=CC=N4)NC3=O + CC1(C)CCC(c2ccc(Cl)cc2)=C(CN2CCN(c3ccc(C(=O)NS(=O)(=O)c4ccc(N[C@H](CCN5CCOCC5)CSc5ccccc5)c(S(=O)(=O)C(F)(F)F)c4)cc3)CC2)C1 [Navitoclax] (partner 0.5 µM)
Summary of the method: (§1)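 Relative viability divides the nuclei count in treated wells by that in vehicle wells. Lung cancer cell lines were seeded in 1536-well plates, dosed by pin tool the next day, and fixed and stained after 5 days in one step with final 0.05% Triton X-100, 1% formaldehyde and 1 ug/ml Hoechst. Dosing was a single drug or a fixed anchor-drug dose plus five library-drug doses (not always all listed) in √10 steps, and values are medians of duplicate plates imaged at 4×.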

Trametinib + Crizotinib = compound: CC(=O)Nc1cccc(-n2c(=O)n(C3CC3)c(=O)c3c(Nc4ccc(I)cc4F)n(C)c(=O)c(C)c32)c1 [Trametinib] + C[C@@H](Oc1cc(-c2cnn(C3CCNCC3)c2)cnc1N)c1c(Cl)ccc(F)c1Cl [Crizotinib] (partner 1 µM)
Summary of the method: as §1

[2] = compound: CN1C=C(C2=CC=CC=C21)/C=C\3/C4=C(C=CC=N4)NC3=O + Nc1nc2[nH]cc(CCc3ccc(C(=O)N[C@@H](CCC(=O)O)C(=O)O)cc3)c2c(=O)[nH]1 [Pemetrexed] (partner 0.2 µM)
Summary of the method: as §1

[3] = compound: CN1C=C(C2=CC=CC=C21)/C=C\3/C4=C(C=CC=N4)NC3=O + NC(=O)Nc1cc(-c2cccc(F)c2)sc1C(=O)N[C@H]1CCCNC1 [AZD7762] (partner 0.2 µM)
Summary of the method: as §1

| Cell Line | relative viability ([1]; first compound 0.02 µM) | relative viability ([1]; first compound 0.06325 µM) | relative viability ([1]; first compound 0.2 µM) | relative viability ([1]; first compound 0.6325 µM) | relative viability ([1]; first compound 2 µM) | relative viability (Trametinib + Crizotinib; first compound 0.0025 µM) | relative viability (Trametinib + Crizotinib; first compound 0.007906 µM) | relative viability (Trametinib + Crizotinib; first compound 0.07906 µM) | relative viability (Trametinib + Crizotinib; first compound 0.25 µM) | relative viability ([2]; first compound 0.02 µM) | relative viability ([2]; first compound 0.06325 µM) | relative viability ([2]; first compound 0.2 µM) | relative viability ([2]; first compound 0.6325 µM) | relative viability ([2]; first compound 2 µM) | relative viability ([3]; first compound 0.02 µM) | relative viability ([3]; first compound 0.06325 µM) | relative viability ([3]; first compound 0.2 µM) | relative viability ([3]; first compound 0.6325 µM) | relative viability ([3]; first compound 2 µM) | relative viability (Trametinib + Crizotinib; first compound 0.025 µM) |
| --- | --- | --- | --- | --- | --- | --- | --- | --- | --- | --- | --- | --- | --- | --- | --- | --- | --- | --- | --- | --- |
| NCI-H838 | 0.941 | 1.04 | 1.05 | 1.04 | 1.1 | 0.786 | 0.689 | 0.572 | 0.411 | 0.249 | 0.235 | 0.234 | 0.247 | 0.246 | 0.81 | 0.753 | 0.789 | 0.871 | 0.632 | – |
| NCI-H1355 | 0.868 | 0.921 | 0.793 | 0.632 | 0.673 | 1.01 | 0.869 | 0.655 | 0.47 | 0.885 | 0.924 | 0.99 | 0.916 | 0.851 | 0.715 | 0.708 | 0.637 | 0.606 | 0.642 | 0.645 |
| NCI-H1437 | 1.08 | 1.08 | 1.18 | 1.18 | 1.19 | 0.952 | 0.883 | 0.373 | 0.472 | 0.305 | 0.294 | 0.344 | 0.343 | 0.335 | 1.23 | 1.2 | 1.1 | 1.17 | 1.26 | 0.572 |
| NCI-H1651 | 0.955 | 0.969 | 1.24 | 1.05 | 1.15 | 0.898 | 0.804 | 0.743 | 0.729 | 0.651 | 0.579 | 0.574 | 0.648 | 0.644 | 0.497 | 0.455 | 0.433 | 0.557 | 0.477 | 0.828 |
| NCI-H1666 | 1.19 | 0.883 | 0.879 | 0.761 | 0.542 | 0.74 | 0.766 | 0.586 | 0.394 | 0.896 | 0.861 | 0.847 | 0.765 | 0.737 | 0.896 | 0.79 | 0.826 | 0.742 | 0.871 | 0.72 |
| NCI-H1734 | 0.817 | 0.82 | – | 0.798 | 0.83 | 0.644 | 0.622 | 0.493 | 0.285 | 0.348 | 0.4 | – | 0.425 | 0.418 | 0.521 | 0.537 | – | 0.546 | 0.559 | – |
| NCI-H1755 | 0.836 | 1 | 0.98 | 0.909 | 0.885 | 0.807 | 0.789 | 0.772 | 0.691 | 0.351 | 0.365 | 0.427 | 0.423 | 0.373 | 0.443 | 0.408 | 0.354 | 0.448 | 0.409 | 0.706 |
| NCI-H1792 | 0.343 | 0.642 | 0.529 | – | 0.496 | 0.92 | 0.949 | 0.553 | 0.488 | 1.06 | 0.813 | 0.496 | 0.74 | 0.825 | 0.943 | 0.702 | 0.376 | 0.518 | 0.693 | 0.738 |
| NCI-H1915 | 0.823 | 0.8 | 0.805 | 0.772 | 0.801 | 0.872 | 0.756 | 0.333 | 0.231 | 0.463 | 0.41 | 0.579 | 0.487 | 0.504 | 0.678 | 0.646 | 0.529 | 0.751 | 0.699 | 0.568 |
| NCI-H1944 | 1.11 | 1.01 | – | 1.09 | 1.13 | 1 | 0.763 | 0.629 | 0.326 | 0.549 | 0.558 | – | 0.617 | 0.652 | 0.442 | 0.471 | – | 0.464 | 0.469 | 0.762 |
| NCI-H1975 | 0.955 | 1.05 | 1.07 | 0.937 | 0.94 | 0.965 | 0.937 | 0.499 | 0.381 | 0.265 | 0.28 | 0.3 | 0.283 | 0.264 | 0.893 | 0.811 | 0.62 | 0.602 | 0.542 | 0.757 |
| NCI-H1993 | 0.726 | 0.768 | 0.894 | 0.682 | 0.856 | 0.796 | 0.716 | 0.674 | 0.662 | 0.564 | 0.515 | 0.641 | 0.457 | 0.534 | 0.704 | 0.666 | 0.671 | 0.698 | 0.626 | 0.797 |
| NCI-H2085 | 1.04 | 1.15 | 1.19 | 1.22 | 1.18 | 0.793 | 0.69 | 0.688 | 0.63 | 0.789 | 0.927 | 0.836 | 0.975 | 0.967 | 0.97 | 1.03 | 0.968 | 0.956 | 0.947 | 0.698 |
| NCI-H2087 | 1.01 | 0.843 | 1.19 | 1.03 | 1.13 | 0.888 | 0.667 | 0.33 | 0.289 | 0.671 | 0.62 | 0.622 | 0.631 | 0.656 | 1.41 | 1.33 | 1.31 | 1.22 | 1.37 | 0.495 |
| NCI-H2126 | 0.789 | 0.824 | 0.833 | 0.859 | 0.8 | 1.01 | 0.959 | 0.832 | 0.749 | 0.694 | 0.62 | 0.674 | 0.669 | 0.594 | 1.01 | 0.899 | 0.864 | 1 | 1 | 0.788 |
| NCI-H2170 | – | 0.604 | 0.527 | 0.543 | 0.541 | 1.16 | 1.07 | 1.1 | 1.04 | 0.261 | 0.254 | 0.292 | 0.264 | 0.257 | 0.86 | 0.811 | 0.581 | 0.825 | 0.761 | – |
